From ChEMBL document CHEMBL1201862, “PubChem BioAssay data set” (2004)
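How tested: cells in 96-well plates exposed to compound for 48 hours at five concentrations. GI50 = concentration required for 50% inhibition of growth.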 Activity calls are given as the source filed them. No stated cut-off is given here; in the data, active = GI50 up to about 1.1 µM and inactive = higher.

How the values were obtained:
Experiment in all cases: growth of human tumour cells (NCI), 48 h
IGROV-1 = tested on: IGROV-1
HOP-92 = tested on: HOP-92
TK-10 = tested on: TK-10
SW-620 = tested on: SW-620
HOP-62 = tested on: HOP-62
SK-OV-3 = tested on: SK-OV-3
SK-MEL-28 = tested on: SK-MEL-28
SNB-78 = tested on: SNB-78
DMS-273 = tested on: DMS-273
SNB-19 = tested on: SNB-19
Malme-3M = tested on: Malme-3M
MOLT-4 = tested on: MOLT-4
OVCAR-5 = tested on: OVCAR-5
HCC 2998 = tested on: HCC 2998
HT-29 = tested on: HT-29
M14 = tested on: M14
COLO 205 = tested on: COLO 205
KM-20L2 = tested on: KM-20L2
RPMI-8226 = tested on: RPMI-8226
U-251 = tested on: U-251
CAKI-1 = tested on: CAKI-1
HL-60 = tested on: HL-60
UACC-257 = tested on: UACC-257
786-0 = tested on: 786-0
A498 = tested on: A498
SN12C = tested on: SN12C
SR = tested on: SR
ACHN = tested on: ACHN
SF-295 = tested on: SF-295
SF-268 = tested on: SF-268
UO-31 = tested on: UO-31
OVCAR-8 = tested on: OVCAR-8
NCI-H23 = tested on: NCI-H23
KM12 = tested on: KM12
UACC-62 = tested on: UACC-62
M19-MEL = tested on: M19-MEL
SK-MEL-2 = tested on: SK-MEL-2
SNB-75 = tested on: SNB-75
OVCAR-3 = tested on: OVCAR-3
A549 = tested on: A549
K562 = tested on: K562
DLD-1 = tested on: DLD-1
LXFL 529 = tested on: LXFL 529
DMS-114 = tested on: DMS-114
HCT-15 = tested on: HCT-15
NCI-H226 = tested on: NCI-H226
NCI-H460 = tested on: NCI-H460
SF-539 = tested on: SF-539
OVCAR-4 = tested on: OVCAR-4
NCI-H522 = tested on: NCI-H522
HCT-116 = tested on: HCT-116
XF498 = tested on: XF498
RXF 393 = tested on: RXF 393
CCRF-CEM = tested on: CCRF-CEM
EKVX = tested on: EKVX
LOX IMVI = tested on: LOX IMVI
RXF 631 = tested on: RXF 631

O=c1c2ccccc2[nH]c2c(O)ccc(O)c12
GI50 (IGROV-1): 15.1 µM (inactive)
GI50 (HOP-92): 18.8 µM (inactive)
GI50 (TK-10): 26.3 µM (inactive)
GI50 (SW-620): 18 µM (inactive)
GI50 (HOP-62): > 100 µM (inactive)
GI50 (SK-OV-3): 25.7 µM (inactive)
GI50 (SK-MEL-28): 18.8 µM (inactive)
GI50 (SNB-78): 19 µM (inactive)
GI50 (DMS-273): 16.6 µM (inactive)
GI50 (SNB-19): 38.7 µM (inactive)
GI50 (Malme-3M): 24 µM (inactive)
GI50 (MOLT-4): 7.91 µM (inactive)
GI50 (OVCAR-5): > 76.9 µM (inactive)
GI50 (HCC 2998): > 100 µM (inactive)
GI50 (HT-29): 38.6 µM (inactive)
GI50 (M14): 15.9 µM (inactive)
GI50 (COLO 205): > 10 µM (inactive)
GI50 (KM-20L2): 78.9 µM (inactive)
GI50 (RPMI-8226): 22.8 µM (inactive)
GI50 (U-251): 15.1 µM (inactive)
GI50 (CAKI-1): 13.9 µM (inactive)
GI50 (HL-60): 2.64 µM (inactive)
GI50 (UACC-257): 18.1 µM (inactive)
GI50 (786-0): 18.8 µM (inactive)
GI50 (A498): 38.3 µM (inactive)
GI50 (SN12C): 14.2 µM (inactive)
GI50 (SR): 7.33 µM (inactive)
GI50 (ACHN): 17.3 µM (inactive)
GI50 (SF-295): 17.3 µM (inactive)
GI50 (SF-268): 25.4 µM (inactive)
GI50 (UO-31): 37.7 µM (inactive)
GI50 (OVCAR-8): 17.9 µM (inactive)
GI50 (NCI-H23): 27.4 µM (inactive)
GI50 (KM12): 45.1 µM (inactive)
GI50 (UACC-62): 16.7 µM (inactive)
GI50 (M19-MEL): 24.9 µM (inactive)
GI50 (SK-MEL-2): 29.4 µM (inactive)
GI50 (SNB-75): > 10 µM (inactive)
GI50 (OVCAR-3): 16.6 µM (inactive)
GI50 (A549): 36.2 µM (inactive)
GI50 (K562): 17.5 µM (inactive)
GI50 (DLD-1): > 10 µM (inactive)
GI50 (LXFL 529): 15.1 µM (inactive)
GI50 (DMS-114): 17.9 µM (inactive)
GI50 (HCT-15): 17.9 µM
GI50 (NCI-H226): 25.6 µM (inactive)
GI50 (NCI-H460): 24.9 µM (inactive)
GI50 (SF-539): 27.6 µM (inactive)
GI50 (OVCAR-4): 3.39 µM (inactive)
GI50 (NCI-H522): 15.1 µM (inactive)
GI50 (HCT-116): 20.7 µM (inactive)
GI50 (XF498): 16.8 µM (inactive)
GI50 (RXF 393): 11.7 µM (inactive)
GI50 (CCRF-CEM): 5.58 µM (inactive)
GI50 (EKVX): > 41.7 µM (inactive)
GI50 (LOX IMVI): 17.8 µM (inactive)
GI50 (RXF 631): 21.8 µM (inactive)
